Experimental data as given in BindingDB's records for doi:10.1021/jm950372w (Rotta Research Laboratorium, 1996).

What was measured:
[1] = molecular target: Gastrin/cholecystokinin type B receptor (Oryctolagus cuniculus); assay: In vitro inhibition of gastrin-induced [Ca2+] cytosolic elevation in isolated rabbit parietal cells
[2] = molecular target: Gastrin/cholecystokinin type B receptor (Cavia porcellus); assay: Inhibition of binding of [3H]N-Me-N-Leu-CCK-8 to cholecystokinin type B receptor in guinea pig brain cortex

Structure (SMILES) | IC50 [1] [nM] | IC50 [2] [nM]
O=C(CCC(NC(=O)c1cc(Cl)cc(Cl)c1)C(=O)N1CCC2(CCCC2)CC1)NC(Cc1c[nH]c2ccccc12)C(=O)O (stereo not given) [2-[5-(8-Aza-spiro[4.5]dec-8-yl)-4-(3,5-dichloro-benzoylamino)-5-oxo-pentanoylamino]-3-(1H-indol-3-yl)-propionic acid] | 12 | 49
O=C(CC(NC(=O)CCC(NC(=O)c1cc(Cl)cc(Cl)c1)C(=O)N1CCC2(CCCC2)CC1)C(=O)O)NCc1ccccc1 (stereo not given) [2-[5-(8-Aza-spiro[4.5]dec-8-yl)-4-(3,5-dichloro-benzoylamino)-5-oxo-pentanoylamino]-N-benzyl-succinamic acid] | 76 | 385
O=C(CCC(NC(=O)c1cc(Cl)cc(Cl)c1)C(=O)N1CCC2(CCCC2)CC1)Nc1ccccc1C(=O)O (stereo not given) [2-[5-(8-Aza-spiro[4.5]dec-8-yl)-4-(3,5-dichloro-benzoylamino)-5-oxo-pentanoylamino]-benzoic acid] | 55 | 443
O=C(O)CCC(Cc1ccccc1)NC(=O)CCC(NC(=O)c1cc(Cl)cc(Cl)c1)C(=O)N1CCC2(CCCC2)CC1 (stereo not given) [4-[5-(8-Aza-spiro[4.5]dec-8-yl)-4-(3,5-dichloro-benzoylamino)-5-oxo-pentanoylamino]-5-phenyl-pentanoic acid] | 86 | 157
O=C(CCC(NC(=O)c1cc(Cl)cc(Cl)c1)C(=O)N1CCC2(CCCC2)CC1)Nc1ccc(C(=O)O)cc1 (stereo not given) [4-[5-(8-Aza-spiro[4.5]dec-8-yl)-4-(3,5-dichloro-benzoylamino)-5-oxo-pentanoylamino]-benzoic acid] | 568 | 1760
CN(C(=O)CCC(NC(=O)c1cc(Cl)cc(Cl)c1)C(=O)N1CCC2(CCCC2)CC1)c1ccc(C(=O)O)cc1 (stereo not given) [4-{[5-(8-Aza-spiro[4.5]dec-8-yl)-4-(3,5-dichloro-benzoylamino)-5-oxo-pentanoyl]-methyl-amino}-benzoic acid] | 1080 | 1420
O=C(CCC(NC(=O)c1cc(Cl)cc(Cl)c1)C(=O)N1CCC2(CCCC2)CC1)N[C@H](Cc1c[nH]c2ccccc12)C(=O)O (stereo partly drawn) [(R)-2-[5-(8-Aza-spiro[4.5]dec-8-yl)-4-(3,5-dichloro-benzoylamino)-5-oxo-pentanoylamino]-3-(1H-indol-3-yl)-propionic acid] | 9 | 40
O=C(CCC(NC(=O)c1cc(Cl)cc(Cl)c1)C(=O)N1CCC2(CCCC2)CC1)N[C@H](Cc1cccc2ccccc12)C(=O)O (stereo partly drawn) [(R)-2-[5-(8-Aza-spiro[4.5]dec-8-yl)-4-(3,5-dichloro-benzoylamino)-5-oxo-pentanoylamino]-3-naphthalen-1-yl-propionic acid] | 9 | 67
O=C(CCC(NC(=O)c1cc(Cl)cc(Cl)c1)C(=O)N1CCC2(CCCC2)CC1)N[C@H](Cc1ccc2ccccc2c1)C(=O)O (stereo partly drawn) [(R)-2-[5-(8-Aza-spiro[4.5]dec-8-yl)-4-(3,5-dichloro-benzoylamino)-5-oxo-pentanoylamino]-3-naphthalen-2-yl-propionic acid] | 24 | 129
O=C(O)CC[C@@H](NC(=O)CCC(NC(=O)c1cc(Cl)cc(Cl)c1)C(=O)N1CCC2(CCCC2)CC1)C(=O)NCCCc1ccccc1 (stereo partly drawn) [(R)-4-[5-(8-Aza-spiro[4.5]dec-8-yl)-4-(3,5-dichloro-benzoylamino)-5-oxo-pentanoylamino]-4-(3-phenyl-propylcarbamoyl)-butyric acid] | 117 | 1860
O=C(O)CC[C@@H](NC(=O)CCC(NC(=O)c1cc(Cl)cc(Cl)c1)C(=O)N1CCC2(CCCC2)CC1)C(=O)Nc1cccc2ccccc12 (stereo partly drawn) [(R)-4-[5-(8-Aza-spiro[4.5]dec-8-yl)-4-(3,5-dichloro-benzoylamino)-5-oxo-pentanoylamino]-4-(naphthalen-1-ylcarbamoyl)-butyric acid] | 17 | 85
O=C(O)CC[C@@H](NC(=O)CCC(NC(=O)c1cc(Cl)cc(Cl)c1)C(=O)N1CCC2(CCCC2)CC1)C(=O)NCc1ccccc1 (stereo partly drawn) [(R)-4-[5-(8-Aza-spiro[4.5]dec-8-yl)-4-(3,5-dichloro-benzoylamino)-5-oxo-pentanoylamino]-4-benzylcarbamoyl-butyric acid] | 38 | 427
O=C(O)CC[C@@H](NC(=O)CCC(NC(=O)c1cc(Cl)cc(Cl)c1)C(=O)N1CCC2(CCCC2)CC1)C(=O)NCCc1ccccc1 (stereo partly drawn) [(R)-4-[5-(8-Aza-spiro[4.5]dec-8-yl)-4-(3,5-dichloro-benzoylamino)-5-oxo-pentanoylamino]-4-phenethylcarbamoyl-butyric acid] | 398 | 1110
O=C(CCC(NC(=O)c1cc(Cl)cc(Cl)c1)C(=O)N1CCC2(CCCC2)CC1)N[C@@H](Cc1c[nH]c2ccccc12)C(=O)O (stereo partly drawn) [(S)-2-[5-(8-Aza-spiro[4.5]dec-8-yl)-4-(3,5-dichloro-benzoylamino)-5-oxo-pentanoylamino]-3-(1H-indol-3-yl)-propionic acid] | 35 | 216
CN(Cc1ccccc1)C(=O)CC[C@H](NC(=O)CCC(NC(=O)c1cc(Cl)cc(Cl)c1)C(=O)N1CCC2(CCCC2)CC1)C(=O)O (stereo partly drawn) [(S)-2-[5-(8-Aza-spiro[4.5]dec-8-yl)-4-(3,5-dichloro-benzoylamino)-5-oxo-pentanoylamino]-4-(benzyl-methyl-carbamoyl)-butyric acid] | 55 | 78
O=C(CC[C@H](NC(=O)CCC(NC(=O)c1cc(Cl)cc(Cl)c1)C(=O)N1CCC2(CCCC2)CC1)C(=O)O)Nc1cccc2ccccc12 (stereo partly drawn) [(S)-2-[5-(8-Aza-spiro[4.5]dec-8-yl)-4-(3,5-dichloro-benzoylamino)-5-oxo-pentanoylamino]-4-(naphthalen-1-ylcarbamoyl)-butyric acid] | 12 | 44
CN(Cc1ccccc1)C(=O)C[C@H](NC(=O)CCC(NC(=O)c1cc(Cl)cc(Cl)c1)C(=O)N1CCC2(CCCC2)CC1)C(=O)O (stereo partly drawn) [(S)-2-[5-(8-Aza-spiro[4.5]dec-8-yl)-4-(3,5-dichloro-benzoylamino)-5-oxo-pentanoylamino]-N-benzyl-N-methyl-succinamic acid] | 44 | 158
O=C(O)C[C@H](NC(=O)CCC(NC(=O)c1cc(Cl)cc(Cl)c1)C(=O)N1CCC2(CCCC2)CC1)C(=O)Nc1cccc2ccccc12 (stereo partly drawn) [(S)-3-[5-(8-Aza-spiro[4.5]dec-8-yl)-4-(3,5-dichloro-benzoylamino)-5-oxo-pentanoylamino]-N-naphthalen-1-yl-succinamic acid] | 19 | 215

Continued, values first:

IC50 [1] [nM] | IC50 [2] [nM] | Structure (SMILES)
173 | 320 | O=C(CCC(NC(=O)c1cc(Cl)cc(Cl)c1)C(=O)N1CCC2(CCCC2)CC1)NC(Cc1ccc(O)cc1)C(=O)O (stereo not given) [2-[5-(8-Aza-spiro[4.5]dec-8-yl)-4-(3,5-dichloro-benzoylamino)-5-oxo-pentanoylamino]-3-(4-hydroxy-phenyl)-propionic acid]
95 | 1060 | CCCCC(NC(=O)CCC(NC(=O)c1cc(Cl)cc(Cl)c1)C(=O)N1CCC2(CCCC2)CC1)C(=O)O (stereo not given) [2-[5-(8-Aza-spiro[4.5]dec-8-yl)-4-(3,5-dichloro-benzoylamino)-5-oxo-pentanoylamino]-hexanoic acid]
994 | 1250 | CC(NC(=O)CCC(NC(=O)c1cc(Cl)cc(Cl)c1)C(=O)N1CCC2(CCCC2)CC1)C(=O)O (stereo not given) [2-[5-(8-Aza-spiro[4.5]dec-8-yl)-4-(3,5-dichloro-benzoylamino)-5-oxo-pentanoylamino]-propionic acid]
142 | 612 | O=C(CCC(NC(=O)c1cc(Cl)cc(Cl)c1)C(=O)N1CCC2(CCCC2)CC1)N[C@H](CC1CCCCC1)C(=O)O (stereo partly drawn) [(R)-2-[5-(8-Aza-spiro[4.5]dec-8-yl)-4-(3,5-dichloro-benzoylamino)-5-oxo-pentanoylamino]-3-cyclohexyl-propionic acid]
307 | 155 | O=C(CCC(NC(=O)c1cc(Cl)cc(Cl)c1)C(=O)N1CCC2(CCCC2)CC1)N[C@H](Cc1ccccn1)C(=O)O (stereo partly drawn) [(R)-2-[5-(8-Aza-spiro[4.5]dec-8-yl)-4-(3,5-dichloro-benzoylamino)-5-oxo-pentanoylamino]-3-pyridin-2-yl-propionic acid]
200 | 1350 | O=C(O)C[C@@H](NC(=O)CCC(NC(=O)c1cc(Cl)cc(Cl)c1)C(=O)N1CCC2(CCCC2)CC1)C(=O)N1CCC2(CCCC2)CC1 (stereo partly drawn) [(R)-4-(8-Aza-spiro[4.5]dec-8-yl)-3-[5-(8-aza-spiro[4.5]dec-8-yl)-4-(3,5-dichloro-benzoylamino)-5-oxo-pentanoylamino]-4-oxo-butyric acid]
1220 | – | O=C(O)CC[C@@H](NC(=O)c1cc(Cl)cc(Cl)c1)C(=O)N1CCC2(CCCC2)CC1 [(R)-5-(8-Aza-spiro[4.5]dec-8-yl)-4-(3,5-dichloro-benzoylamino)-5-oxo-pentanoic acid]
206 | 1690 | O=C(O)CC[C@@H](NC(=O)CCC(NC(=O)c1cc(Cl)cc(Cl)c1)C(=O)N1CCC2(CCCC2)CC1)C(=O)N1CCC2(CCCC2)CC1 (stereo partly drawn) [(R)-5-(8-Aza-spiro[4.5]dec-8-yl)-4-[5-(8-aza-spiro[4.5]dec-8-yl)-4-(3,5-dichloro-benzoylamino)-5-oxo-pentanoylamino]-5-oxo-pentanoic acid]
9 | 46 | O=C(O)CC[C@H](NC(=O)CCC(NC(=O)c1cc(Cl)cc(Cl)c1)C(=O)N1CCC2(CCCC2)CC1)C(=O)NC1CCCc2ccccc21 (stereo partly drawn) [(S)-4-[5-(8-Aza-spiro[4.5]dec-8-yl)-4-(3,5-dichloro-benzoylamino)-5-oxo-pentanoylamino]-4-(1,2,3,4-tetrahydro-naphthalen-1-ylcarbamoyl)-butyric acid]
16 | 57 | O=C(O)CC[C@H](NC(=O)CCC(NC(=O)c1cc(Cl)cc(Cl)c1)C(=O)N1CCC2(CCCC2)CC1)C(=O)Nc1cccc2c1CCCC2 (stereo partly drawn) [(S)-4-[5-(8-Aza-spiro[4.5]dec-8-yl)-4-(3,5-dichloro-benzoylamino)-5-oxo-pentanoylamino]-4-(5,6,7,8-tetrahydro-naphthalen-1-ylcarbamoyl)-butyric acid]
